Tests used:
Format in all cases: cell-based
BT549 cells = assay: Gene expression by qRT-PCR (TUBB reference)
Procedure: (§1) Cell culture and drug treatments. Cell lines were obtained from ATCC (American Type Culture Collection, Manassas, VA) and grown under standard conditions (5% CO2, 10% FBS (fetal bovine serum), with 5% antifungal/antibacterial). Cell lines were tested for Mycoplasma using the MycoAlert Mycoplasma Detection Kit (Lonza, Basel Switzerland, cat: LT07-218); all experiments were done with mycoplasma negative cells. U87MG cells were propagated in MEM (Minimal Essential Medium). BT549 and DBTRG cells were propagated in RPMI (Roswell Park Memorial Institute 1640 Medium). LN18, U118MG, A172 and LN229 cells were propagated in DMEM (Dulbecco's Modified Eagle Medium). Neurosphere/cancer stem cell cultures for U87MG and BT549 cell lines were plated with 40,000 cells per mL in 3D Tumorsphere Medium XF (Sigma cat: C-28070, Burlington, MA). BT549 cancer stem cell cultures were supplemented with 1XB27 XenoFree CTS (Gibco/Thermo Fisher Waltham, MA, USA). AS1842856 was purchased from Calbiochem (Danvers, MA) and utilized at 200 nM, 500 nM and 1 μM final concentrations as indicated. AS1708727 was purchased from MedChem Express (Monmouth Junction, NJ) and was used at 0.5 μM, 1.0 µM and 2.0 μM concentrations. 5-aza-2'-deoxycytidine (5-AZA) was purchased from Millipore/Sigma (Burlington, MA) and utilized at a final concentration of 3 μM. Total RNA was prepared using the Qiagen RNeasy kit (Hilden, Germany), which was then used to generate cDNA using Superscript Reverse Transcriptase II (Invitrogen, Carlsbad, CA). Samples (cDNAs) were analyzed using (Power SYBR Green Master Mix, Applied Biosystems, Foster City, CA) and the ABI Step-One Real-time system (Carlsbad, CA). Expression levels were normalized to Beta-Tubulin, TUBB in gene expression experiments and calculated using 2-4ACT method (Livak et al., 2001). Primer sequences are detailed in Table 1. MDA-MB-468 cells were grown to log phase in DMEM with 10% FBS without antibiotics. BT549 cells were grown to log phase in DMEM with 10% FBS without antibiotics. Cells were transfected with FOXO1 esiRNA (EHU156591 Sigma, St. Louis, MO) or EGFP control esiRNA (EHUEGFP) using Lipofectamine 3000 (utilized only […] reagent, Invitrogen, Carlsbad, CA).

BT549 = assay: Colony formation assay (crystal violet); details: treated five days
Procedure: (§2) Cell culture and drug treatments. Cell lines were obtained from ATCC (American Type Culture Collection, Manassas, VA) and grown under standard conditions (5% CO2, 10% FBS (fetal bovine serum), with 5% antifungal/antibacterial). Cell lines were tested for Mycoplasma using the MycoAlert Mycoplasma Detection Kit (Lonza, Basel Switzerland, cat: LT07-218); all experiments were done with mycoplasma negative cells. U87MG cells were propagated in MEM (Minimal Essential Medium). BT549 and DBTRG cells were propagated in RPMI (Roswell Park Memorial Institute 1640 Medium). LN18, U118MG, A172 and LN229 cells were propagated in DMEM (Dulbecco's Modified Eagle Medium). Neurosphere/cancer stem cell cultures for U87MG and BT549 cell lines were plated with 40,000 cells per mL in 3D Tumorsphere Medium XF (Sigma cat: C-28070, Burlington, MA). BT549 cancer stem cell cultures were supplemented with 1XB27 XenoFree CTS (Gibco/Thermo Fisher Waltham, MA, USA). AS1842856 was purchased from Calbiochem (Danvers, MA) and utilized at 200 nM, 500 nM and 1 μM final concentrations as indicated. AS1708727 was purchased from MedChem Express (Monmouth Junction, NJ) and was used at 0.5 μM, 1.0 µM and 2.0 μM concentrations. 5-aza-2′-deoxycytidine (5-AZA) was purchased from Millipore/Sigma (Burlington, MA) and utilized at a final concentration of 3 μM. Cells were plated at a density of 2,700 cells per mL and were treated five days with indicated drug. Treatments were investigated in triplicate (in numerous independent experiments) and stained with crystal violet. Plates were aspirated of media then each well was washed with 1.0 mL of 1x phosphate buffered saline (PBS) once before being stained with 1.0 mL of crystal violet stain (0.5% crystal violet in buffered formalin) and incubated for 15 minutes. The stain was aspirated, and wells were washed 3 times with 0.5 mL of 1x PBS. After collections were completed, crystal violet-stained plates were solubilized using 0.5 mL on each well of 10% acetic acid and placed on shaker for 1 hour. Solubilized samples were transferred to 96 well plates and quantified on a spectrophotometer at 590 nm. Quantified plates were analyzed with a Tukey test. Error bars were added using the standard deviation. Cells were plated at 2,700 cells per mL and were treated five days with the indicated drug. Treatments were investigated in triplicate (in numerous independent experiments) and stained with crystal violet. Plates were aspirated of media, then each well was washed with 1.0 mL of 1× phosphate-buffered saline (PBS) once before being stained with 1.0 mL of crystal violet stain (0.5% crystal violet in buffered formalin) and incubated for 15 minutes. The stain was aspirated, and cells were washed three times with 0.5 mL of 1×PBS. After collections were completed, crystal violet-stained plates were solubilized using 0.5 mL on each well of 10% acetic acid and placed on a shaker for 1 hour. Solubilized samples were transferred to 96 well plates and quantified on a spectrophotometer at 590 nm using iMark Microplate Absorbance Reader (Bio-Rad, Hercules, CA). Quantified plates were analyzed with a Tukey Test. Error bars were added using the standard deviation.

LN18 = assay: Colony formation assay (crystal violet); details: treated five days
Procedure: as §2

MDA-MB-468 = assay: Colony formation assay (crystal violet); details: treated five days
MDA-MB-468 cells = assay: Gene expression by qRT-PCR (TUBB reference)
Procedure: as §1

| SMILES | FAS and BIM expression (BT549 cells; 3 μM for 48 hours) | colony formation (BT549) | colony formation (LN18) | colony formation (MDA-MB-468) | FAS and BIM gene induction, comparison of the two inhibitors (BT549 cells) | FAS gene expression (BT549 cells; 1 μM treatment for 4 days) | FAS and BIM gene induction, comparison of the two inhibitors (MDA-MB-468 cells) | FAS gene expression (MDA-MB-468 cells; four days, 1 μM for two days) |
| --- | --- | --- | --- | --- | --- | --- | --- | --- |
| Nc1ncn([C@H]2C[C@H](O)[C@@H](CO)O2)c(=O)n1 [5-AZA, 5-aza-2′-deoxycytidine] | induced FAS and BIM |  |  |  |  |  |  |  |
| CN(C(=O)CC1CCCC1)c1ccc(Cl)c(COc2cccc3cnccc23)c1Cl [AS1708727, 2-cyclopentyl-N-[2,4-dichloro-3-(isoquinolin-5-yloxymethyl)phenyl] N-methylacetamide] |  | reduced colony formation | reduced colony formation | reduced colony formation | only induced the FAS gene | increased FAS gene expression | only induced the FAS gene | increased FAS gene expression |

— patent US20240409934A1, “FOXO1-TARGETED THERAPY FOR THE TREATMENT OF CANCER” (BOARD OF REGENTS, THE UNIVERSITY OF TEXAS SYSTEM, priority 2021, published 2024)
